Laboratory results from PubChem BioAssay AID179 (DTP/NCI, 2004).
Several values for one entry are separate records, joined by “and”; a condition that tells them apart may be missing. Identical values can stand only once. Activity calls are given as the source filed them.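 The calls were made as follows: active = compounds giving half or more protection of infected cells from virus-caused growth loss, again on retest; inactive = the rest.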 Where a SMILES comes first, the peptide text is derived from it. [ ]: non-standard residue; d: D form. The star is where a group is joined. ONb = O=[N+]([O-])c1ccc(CO*)cc1; AllylGly = C=CC[CH](N)C(=O)O; Boc = CC(C)(C)OC(=O)*

System: CEM cells HIV-1 protection, formazan growth assay
Test: NCI AIDS Antiviral Assay
Conditions: for IC50: measured here: growth of uninfected CEM cells
Summary of the method: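 Human CEM cells, uninfected and HIV-1-infected, exposed to five drug concentrations; growth measured by soluble formazan assay and scored as percent protection from infection, with protecting compounds retested.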

Structure (SMILES)	EC50	IC50	outcome
COc1cc(/C=C2\C=Cc3ccccc32)ccc1N(C)C	> 36.3 µM	24 µM	–
CC(=NNC(=S)Nc1cccc(C)c1)c1cccc(C(C)=NNC(=S)Nc2cccc(C)c2)n1	> 200 µM	27.5 µM	–
Cc1cccc(N2C(=O)C(Cl)=C(Cl)C2=O)c1	–	–	inactive
O=C1C2CCCCC2C(=O)N1n1c(Cc2ccc(Cl)cc2)n[nH]c1=O (stereo not drawn)	> 200 µM	> 200 µM	–
CN(C)C(=O)N1CC[N+](C)([O-])CC1	> 200 µM	> 200 µM	–
CCN=C(NC(=O)c1c(Cl)cccc1Cl)SCSC(=NCC)NC(=O)c1c(Cl)cccc1Cl	> 200 µM	170 µM	–
CN1CC[C@@H](c2c(O)cc(O)c3c(=O)cc(-c4ccccc4Cl)oc23)[C@@H](O)C1	0.01 µM	0.0468 µM	–
CSC1=C(C#N)C(c2ccccc2)CC(=O)N1 (stereo not drawn)	> 200 µM	> 200 µM	–
COC(=O)C1(O)c2ccccc2N=C2C1CCN2C (stereo not drawn)	> 27.5 µM	> 27.5 µM	–
CSc1n[nH]c2c1c(C)nn2-c1ccccc1	> 200 µM	95.5 µM	–
CC(=O)C(N=Nc1ccc(S(=O)(=O)Nc2onc(C)c2C)cc1)C(=O)Nc1cc(C)cc(C)c1 (stereo not drawn)	> 200 µM	30.2 µM	–
NC1=NCCS1	> 70.8 µM	> 70.8 µM and 32.4 µM	–
Cc1ccc(C(=O)Nc2ccc(S(=O)(=O)O)c3cc(S(=O)(=O)O)cc(S(=O)(=O)O)c23)cc1NC(=S)Nc1cc(C(=O)Nc2ccc(S(=O)(=O)O)c3cc(S(=O)(=O)O)cc(S(=O)(=O)O)c23)ccc1C	132 µM	204 µM	–
Cc1c(OC(C)C(=O)O)ccc2c(-c3ccccc3)cc(=O)oc12 (stereo not drawn)	–	–	inactive
COc1ccc(NC(=O)c2c(N)c(C#N)c3n2CCC3)cc1	> 200 µM	> 200 µM	–
O=C(Nc1ccccc1)c1cc(S(=O)(=O)N2CCNC2=O)c(S)cc1Cl	112 µM	132 µM	–
CCOP(=O)(Cc1ccc(CP(=O)(OCC)OCC)n1C)OCC	–	–	inactive
CCC(=O)N/S(=N/S(=O)(=O)c1ccccc1)C(Cl)(Cl)Cl (stereo not drawn)	> 200 µM	> 200 µM	–
NC1(C(=O)N2CCCC2C(=O)O)CCCC1 (stereo not drawn) (HELM PEPTIDE1{[NC1(C(=O)[*:2])CCCC1].[O=C(O)C1CCCN1[*:1]]}$$$$V2.0)	> 200 µM	> 200 µM	–
CC1CCCN2C(=O)CN(c3ccccc3)CC(=O)N12 (stereo not drawn)	> 200 µM	> 200 µM	–
COc1cc(/C=N/NC2=NCCCN2)ccc1O	> 200 µM	> 200 µM	–

Structure (SMILES)	EC50	IC50	outcome
CC(C)OC1=C(CC2(C)OCCO2)C(=O)C12OCCO2	> 200 µM	> 200 µM	–
CCOC(=O)N1CCN(c2ccc3ccc(N)nc3n2)CC1	> 200 µM	148 µM	–
C(=C\c1ccnc2ccccc12)/c1cccnc1	> 155 µM	42.7 µM	–
C[N+](C)(C)CCCS(=O)(=O)[O-]	> 200 µM	> 200 µM	–
CC1=C(C#N)C2(C(=O)N(C)c3ccccc32)C(C#N)=C(C)N1	> 324 µM	27.5 µM	–
CCCCC(CC)CCC(CCC(CC)CCCC)S(=O)(=O)O (stereo not drawn)	> 200 µM	> 200 µM	–
CN(C)NC(=S)NC12CC3CC(CC(C3)C1)C2	–	–	inactive
N#CCCNCCN(CCN(C(=O)Nc1ccccc1)c1ccccc1)C(=O)Nc1ccccc1	> 200 µM	93.3 µM	–
c1ccc(N=C2SC(=NNc3ccccc3)SC2=Nc2ccccc2)cc1	> 200 µM	> 200 µM	–
COC1/C=C/OC2(C)Oc3c(C)c(O)c4c(O)c(cc(OCC(=O)N5C(C)CCC5C)c4c3C2=O)NC(=O)/C(C)=C/C=C/C(C)C(O)C(C)C(O)C(C)C(OC(C)=O)C1C (stereo not drawn)	> 200 µM	43.7 µM	–
N#Cc1c(N2CCCC2)nsc1Nc1ccccc1	> 200 µM	> 200 µM	–
C=C1C(OC)O[C@@H]2O[C@@]3(C)CC[C@H]4[C@H](C)CC[C@@H]1[C@@]24O3 (stereo partly drawn)	> 200 µM	> 200 µM	–
CCN(CC)C(=O)N[C@@H](CC(C)C)C(=O)NC	> 200 µM	> 200 µM	–
CSCCC(NC(=O)C(CC(C)C)NC(=O)C1CCCN1C(=O)C(Cc1ccccc1)NC(=O)C(Cc1ccccc1)NC(=O)C(CCC(=O)O)NC(=O)OC(C)(C)C)C(N)=O (stereo not drawn) (Boc-EFFPLM-NH2; configuration not given here)	> 282 µM	> 282 µM	–
O=C1CCCC2=C1C(c1ccncc1)Nc1ccccc1N2 (stereo not drawn)	> 200 µM	> 200 µM	–
CCOC(=O)Cc1nnc2n(-c3ccccc3)c(=O)c3ccccc3n12	> 100 µM	> 100 µM	–
C=CCOc1c(C)cc(C#N)cc1C	–	–	inactive
O=P1(OCC(F)(F)C(F)F)Oc2ccccc2O1	> 41.7 µM	3.24 µM	–
Cc1ccc(S(=O)(=O)N/N=c2\c(C)c(C3=NS(=O)(=O)c4cc(S(N)(=O)=O)c(Cl)cc4N3)oc3c(Cl)cc(Cl)cc23)cc1	> 69.2 µM	> 69.2 µM	–
N#C/C(=C\N1CCNC1=S)c1nc2ccccc2s1	> 200 µM	> 200 µM	–
OC1c2ccccc2CCC1C(O)(C(F)(F)F)C(F)(F)F (stereo not drawn)	> 200 µM	85.1 µM	–

Structure (SMILES)	EC50	IC50	outcome
O=C1c2cccc3cccc(c23)C(=O)N1c1ncn[nH]1	> 100 µM	> 100 µM	–
O=C1OC(OCC#CCOC2OC(=O)C(Cl)=C2Cl)C(Cl)=C1Cl (stereo not drawn)	> 200 µM	1.7 µM	–
O=C(O)c1ccc(C2C3C=CC(C3)C2[N+](=O)[O-])cc1 (stereo not drawn)	> 347 µM	> 347 µM	–
C=CCC(NC(=O)OC(C)(C)C)C(=O)NC(CCC(=O)OCc1ccc([N+](=O)[O-])cc1)C(N)=O (stereo not drawn) (Boc-[AllylGly]-Glu(ONb)-NH2; configuration not given here)	> 200 µM	102 µM	–
[N-]=[N+]=NC1CC(n2cc(Cc3ccccc3)c(=O)[nH]c2=O)OC1CO (stereo not drawn)	–	–	inactive
OCCC1(O)CCC(O)CC1 (stereo not drawn)	–	–	inactive
COc1ccc(N2C(=O)CC(C3CC(C(C)(C)C)CCC3=O)C2=O)cc1 (stereo not drawn)	> 200 µM	> 200 µM	–
O=NN(CCCl)C(=O)NC1CCCCC1	> 1070 µM	35.5 µM	–
Cn1c2ccccc2c2nnc(N/N=C/c3ccncc3)nc21	> 200 µM	> 200 µM	–
Cc1oc2nc(N(C)C)n3nnnc3c2c1C	–	–	inactive
O=C1C=C2CCC[C@H]3OC(=O)C[C@@]23CC1	–	–	inactive
COc1cc2c(oc(=O)c3c4oc([Si](C)(C)C)cc4cc(OC)c23)c2cccc(OCc3ccccc3)c12	> 0.501 µM	> 0.501 µM	–
COc1ccc2c(c1)CCN1C2CCN2C(=O)CCC21 (stereo not drawn)	> 912 µM	> 912 µM	–
CCOC(=O)C1=NN(c2ccc([N+](=O)[O-])cc2)[C@@]2(C)C[C@]3(c4ccccc4)N(c4ccc([N+](=O)[O-])cc4)N=C(C(=O)OCC)N3c3ccccc3N12	> 200 µM	> 200 µM	–
CC1(C)C[C@H](O)[C@H](O)[C@]23C(=O)O[C@H](O)[C@H]2C(C=O)=CC[C@@H]13	> 200 µM	> 200 µM	–
CCCOC(=O)NC(C)C(=O)NC(CCC(=O)NC(CCCC(N)C(=O)O)C(=O)NC(C)C(=O)O)C(=O)O (stereo not drawn)	> 50.1 µM	> 50.1 µM	–
Cc1c(O)cc2c(c1O)C(=O)CC(c1ccc(O)cc1)O2 (stereo not drawn)	> 200 µM	93.3 µM	–
Nc1c2c([nH]c(=O)c1N=O)CCC2	> 200 µM	> 200 µM	–
CCCCCC/C(CC(=O)CCC(=O)NCCc1ccccc1)=N\Nc1ccc([N+](=O)[O-])cc1[N+](=O)[O-]	> 97.7 µM	> 97.7 µM	–
